Entries after “also recorded” stand apart in the source; their conditions may differ. Where two headings read alike, the source gives them in different places.
Key:
OXA-10 = OXA-10 (Pseudomonas aeruginosa, UniProt P14489); test: Inhibition of other OXA enzymes (nitrocefin reporter): OXA-10; assay type: biochemical
Description: (§1) Compounds were tested for inhibition of a given OXA enzyme from hydrolyzing nitrocefin using a Tecan plate reader. […] A control with no compound was included in each run. For each compound concentration, the velocity of nitrocefin hydrolysis was determined at 482 nm and fit to the Morrison equation. […] The average Ki of separate experiments, each of which consisted of duplicate runs, is reported and error was quantified as the standard deviation.
(§2) The high sequence diversity of class D β-lactamases has made it difficult to find a class-wide inhibitor. The inhibition activity of CDD-97 was tested against other OXA-enzymes of varying sequence identity, to assess its spectrum of activity (Table 2). OXA-10 is regarded as the canonical OXA, however it is not a major clinical threat as it mainly hydrolyzes penicillins. OXA-58 is another carbapenemase unable to hydrolyze extended-spectrum cephalosporins like OXA-48. Both OXA-48 and OXA-58 are predominantly found in gram-negative bacteria, however OXA-48 is prevalent in the Enterobacteriaceae family (mainly Klebsiella pneumoniae), while OXA-58 is found in the Moraxellaceae family (mainly Acintobacter baumannii). While K. pneumoniae is more rampant in the clinics and most OXA-mediated carbapenem is due to OXA-48, A. baumannii nosocomial infections are a growing issue. OXA-163 is an OXA-48 like enzyme also prevalent in Enterobacteriaceae. […]

OXA-24 = target: T1, OXA-24 (Acinetobacter baumannii, UniProt Q8RLA6); test: Inhibition of other OXA enzymes (nitrocefin reporter): OXA-24; assay type: biochemical
T1 construct: His-tag (N, cleaved yes); made in house; host or cells: E. coli BL21 (DE3), pET28a
T1 sequence (Q8RLA6 entry or part of it): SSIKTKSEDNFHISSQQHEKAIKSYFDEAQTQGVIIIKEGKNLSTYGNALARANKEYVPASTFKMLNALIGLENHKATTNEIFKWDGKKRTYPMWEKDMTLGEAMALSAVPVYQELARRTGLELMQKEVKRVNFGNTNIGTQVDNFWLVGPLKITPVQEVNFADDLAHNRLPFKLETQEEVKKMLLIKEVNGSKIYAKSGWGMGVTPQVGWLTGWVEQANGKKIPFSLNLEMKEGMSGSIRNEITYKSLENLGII
Description: as §1, §2

E. coli MG1655OXA-48 = test: Bacterial susceptibility (MIC, broth microdilution) of E. coli expressing OXA-48; assay type: cell-based; conditions: for MIC: Escherichia coli
Description: Bacterial susceptibility was specifically tested using minimum inhibitory concentration assays. Susceptibility assays were performed with E. coli strains using broth in a microplate set up. Two-fold dilutions of antibiotic and/or inhibitor were used. For susceptibility tests, bacterial strains were transformed with plasmids containing OXA-48 with its endogenous signal sequence for periplasmic migration (cloned into pTP123 vector) (Majiduddin & Palzkill, 2003, Antimicrob. Agents Chemother. 47:1062-1067). pTP123 was cut with XbaI and SacI and the linearized fragment was assembled using Gibson assembly (New England Biolabs, Ipswich, MA) its signal sequence cloned in by using Gibson assembly. Bacteria were grown in Mueller-Hinton broth with 12.5 μg/mL chloramphenicol (plasmid marker) overnight. An overnight culture was diluted 1:10^4 into the final well solutions (100 uL total) and incubated for 16-18 hours. After incubation, microplates were read using a Tecan plate reader at absorbance 600. Growth was objectively defined as yielding an absorbance ≥2 times the absorbance of the negative control (media and no culture). Experiments were repeated with new bacterial inoculums each time.
Effective β-lactamase inhibitors synergize with β-lactam antibiotics and ultimately lower the minimum inhibitory concentration (MIC) of antibiotic needed to kill the bacteria. MIC studies were performed with ampicillin (AMP), a β-lactam antibiotic readily hydrolyzed by OXA-48, against E. coli strain MG1655 expressing OXA-48 (MG1655OXA-48). The OXA-48 plasmid construct contained the endogenous signal sequence of OXA-48 for secretion to the periplasm, which was expressed under a trc-promoter, allowing leaky expression in the absence of IPTG inducer. All MICs were performed by broth microdilution with 2-fold dilutions of antibiotic and/or inhibitor (FIG. 6A). The ampicillin (AMP) and imipenem (IMP) MICs were separately determined for a range of CDD-97 and avibactam concentrations. […] In the absence of bacteria, the media (Mueller Hinton) gives an absorbance reading of 0.04 so absorbance readings greater than or equal to two-fold the control were considered bacterial growth. […] CDD-97 was tested for its synergistic ability by determining AMP MICs with a range of CDD-97 concentrations (up to 256 μg/ml).
Impermeability of the outer membrane to small molecules is a major challenge for the development of therapeutics for Gram-negative bacterial infections. β-lactamases, including OXA-48, reside in the periplasmic space and so inhibitors must traverse the outer membrane to be effective. To determine whether low permeability caused the poor in vivo activity of CDD-97, an accumulation assay (Richter, et al., 2017, Nature 545:299-304) was performed to quantify the amount of CDD-97 present in E. coli cells after incubation. In the assay, tetracycline was used as a positive control while fusidic acid and clindamycin were used as negative controls (Richter, et al., 2017, Nature 545:299-304). Controls and CDD-97 were separately incubated with wildtype E. coli (MG1655) cells and then these cells were centrifuged through silicone oil to separate free, unaccumulated compound from the cell pellet. Cell lysates were collected by freeze-thawing and analyzed by mass spectrometry to quantify the amount of accumulated compound. Compared to tetracycline, CDD-97 was present in cells at 20-fold lower levels (FIG. 6B). […] The finding that CDD-97 accumulates inefficiently across the outer membrane was also examined by adding sub-lethal concentrations of colistin to the ampicillin/CDD-97 MIC assays. Colistin is known to disrupt the outer membrane and enhance permeability in E. coli. If the outer membrane is a barrier for CDD-97, it was predicted that the addition of sub-lethal concentrations of colistin would enhance the activity of CDD-97 against E. coli. […]

Chain of OXA-10 (P14489 20-266): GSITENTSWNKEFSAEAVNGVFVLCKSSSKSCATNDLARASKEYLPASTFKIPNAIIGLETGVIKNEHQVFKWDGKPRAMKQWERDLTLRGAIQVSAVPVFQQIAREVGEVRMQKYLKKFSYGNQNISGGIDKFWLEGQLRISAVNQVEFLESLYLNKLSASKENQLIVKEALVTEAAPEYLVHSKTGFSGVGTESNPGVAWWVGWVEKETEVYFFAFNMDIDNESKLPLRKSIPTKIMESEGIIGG

SMILES: CCOc1ccccc1N1CCN(c2ncnc(N3CCC(C(=O)O)CC3)n2)CC1 [CDD-97, 1-(4-(4-(2-ethoxyphenyl)piperazin-1-yl)-1,3,5-triazin-2-yl)piperidine-4-carboxylic acid]
- Ki (OXA-10): 61 ± 27 µM
- Ki fold less potent than against OXA-48 (OXA-10; OXA-10 vs OXA-48): about 100 fold
- Ki (OXA-24): 14 ± 1 µM
- synergy with β-lactam antibiotics (effect on AMP/IMP MIC) in words (E. coli MG1655OXA-48; E. coli expressing OXA-48, CDD-97 up to 256 μg/mL, avibactam up to 4 μg/mL): did not synergize with ampicillin; also recorded: no synergy was seen between CDD-97 and imipenem; also recorded: colistin potentiates the activity of CDD-97; also recorded: synergizes weakly
- MIC (E. coli MG1655OXA-48; MG1655OXA48, read-out: AMP MIC, with 4 μg/mL CDD-97): 1020 mg/L
- MIC (E. coli MG1655OXA-48; MG1655OXA48, read-out: AMP MIC, with 8 μg/mL CDD-97): 512 mg/L
- MIC (E. coli MG1655OXA-48; MG1655OXA48, read-out: AMP MIC, with 16 μg/mL CDD-97): 512 mg/L
- MIC (E. coli MG1655OXA-48; MG1655OXA48, read-out: AMP MIC, with 32 μg/mL CDD-97): 512 mg/L
- MIC (E. coli MG1655OXA-48; MG1655OXA48, read-out: AMP MIC, with 64 μg/mL CDD-97): 512 mg/L
- MIC (E. coli MG1655OXA-48; MG1655OXA48, read-out: AMP MIC, with 128 μg/mL CDD-97): 512 mg/L
- MIC (E. coli MG1655OXA-48; MG1655OXA48, read-out: AMP MIC, with 256 μg/mL CDD-97): 512 mg/L
- MIC (E. coli MG1655OXA-48; MG1655OXA48, read-out: AMP MICs, (+) CDD-97 (16 μg/mL), colistin 0 μg/mL): 1020 mg/L
- MIC (E. coli MG1655OXA-48; MG1655OXA48, read-out: AMP MICs, (+) CDD-97 (16 μg/mL), colistin 0.0625 μg/mL): 512 mg/L
- MIC (E. coli MG1655OXA-48; MG1655OXA48, read-out: AMP MICs, (+) CDD-97 (16 μg/mL), colistin 0.125 μg/mL): 1020 mg/L
- MIC (E. coli MG1655OXA-48; MG1655OXA48, read-out: AMP MICs, (+) CDD-97 (16 μg/mL), colistin 0.25 μg/mL): 256 mg/L
- MIC (E. coli MG1655OXA-48; MG1655OXA48, read-out: AMP MICs, (+) CDD-97 (16 μg/mL), colistin 0.5 μg/mL): 128 mg/L
- MIC (E. coli MG1655OXA-48; MG1655OXA48, read-out: AMP MICs, (+) CDD-97 (16 μg/mL), colistin 1 μg/mL): 8 mg/L
- MIC (E. coli MG1655OXA-48; MG1655OXA48, read-out: IMP MIC, with 4 μg/mL CDD-97): 0.625 mg/L
- MIC (E. coli MG1655OXA-48; MG1655OXA48, read-out: IMP MIC, with 8 μg/mL CDD-97): 0.312 mg/L
- MIC (E. coli MG1655OXA-48; MG1655OXA48, read-out: IMP MIC, with 16 μg/mL CDD-97): 0.312 mg/L
- MIC (E. coli MG1655OXA-48; MG1655OXA48, read-out: IMP MIC, with 32 μg/mL CDD-97): 0.312 mg/L
- MIC (E. coli MG1655OXA-48; MG1655OXA48, read-out: IMP MIC, with 64 μg/mL CDD-97): 0.312 mg/L
- MIC (E. coli MG1655OXA-48; MG1655OXA48, read-out: IMP MIC, with 128 μg/mL CDD-97): 0.312 mg/L
- MIC (E. coli MG1655OXA-48; MG1655OXA48, read-out: IMP MIC, with 256 μg/mL CDD-97): 0.625 mg/L
